# Data taken from patent US11234979B2, “Heteroaryl compounds as muscarinic M1 receptor positive allosteric modulators” (SUVEN LIFE SCIENCES LIMITED, priority 2017, dated 2022).
# Tests used:
# [1] = test system: Male Wistar rats; test: Object recognition task model; type: in vivo; settings: rat, 3 mg/kg, p.o.
# Method: Object Recognition Task Model
# The cognition enhancing properties of compounds of this invention were estimated by using this model.
# Male Wistar rats (8-10 weeks old) were used as experimental animals. Four animals were housed in each cage. Animals were kept on 20% food deprivation from a day prior to experimentation. Water was provided ad libitum throughout the experiment. Animals were maintained on a 12 hours light/dark cycle in temperature and humidity controlled room. The experiment was carried out in a circular or square arena made up of acrylic. Rats were habituated to individual arenas for up to 1 hour in the absence of any objects on day 1.
# One group of 12 rats received vehicle and another set of animals received compound of the formula (I), before the familiar (T1) and choice (T2) trials. During the familiarization phase, (T1), the rats were placed individually in the arena for 3 minutes, in which two identical objects (a1 and a2) were positioned 10 cm from the wall. 24 hours after T1, trial for long-term memory test was performed. The same rats were placed in the same arena as they were placed in T1 trial. During the choice phase (T2) rats were allowed to explore the arena for 3 minutes in presence of a copy of familiar object (a3) and one novel object (b). During the T1 and T2 trial, explorations of each object (defined as sniffing, licking, chewing or having moving vibrissae whilst directing the nose towards the object at a distance of less than 1 cm) were recorded using stopwatch.
# T1 is the total time spent exploring the familiar objects (a1+a2).
# T2 is the total time spent exploring the familiar object and novel object (a3+b).
# The object recognition test was performed as described by Ennaceur, A., Delacour, J., 1988, A new one-trial test for neurobiological studies of memory in rats˜Behavioural data, Behav. Brain Res., 31, 47-59.
# [2] = test system: hippocampal theta oscillations; test: Theta modulation in dorsal hippocampus of anesthetized rats in combination with donepezil; type: in vivo, Male Wistar rats; settings: anesthetized rat, Example 32 1 mg/kg
# Description: Evaluation of Theta Modulation in Dorsal Hippocampus of Anesthetized Male Wistar
# Male Wistar rats (240-320 g) were anesthetized by Intraperitoneal administration of urethane (1.2 to 1.5 g/kg) for implantation of a catheter in the left femoral vein. The animal was placed in a stereotaxic frame for implanting an electrode (stainless steel wire, Plastics One) into the dorsal hippocampus (AP: −3.8 mm; ML: +2.2 mm; DV: −2.5 mm; Paxinos and Watson, 2004). Bipolar stimulating electrode (untwisted stainless steel wires, separated by 0.75-1.0 mm at their tips, Plastics One) was implanted in the Nucleus Pontis Oralis (NPO; AP: −7.8 mm; ML: 1.8 mm; DV: −6.0 mm; Paxinos and Watson, 2004). Additionally one electrode was implanted into the cerebellum which served as a reference. Hippocampal θ rhythm was evoked via a 6-s electrical stimulation train (20-160 μA, 0.3-ms pulse duration, 250 Hz) delivered to the NPO at a rate of 0.01 trains/s with a Grass S88 stimulator and PSIU6 stimulus isolation unit (Grass Medical Instruments, Quincy, Mass.). EEG was recorded at a rate of 1000 Hz using Ponemah (Version 5.2) software and stored for off-line analysis using NeuroScore (Version 3.0). Baseline amplitude level was achieved by using the current required to elicit […] to 50% of the maximal amplitude under control conditions. After the stabilization period of one hour, baseline recording was done for 30 min followed by the treatment of vehicle or Example 32 (1 mg/kg, i.v.).
# Power in the θ rhythm frequency in the stimulation period during the 30-min baseline period was calculated and the % changes in these measures post treatment were calculated. […] Statistical significance was considered at a p value less than 0.05.
# [3] = choice trial T2, 24 hours after T1
smiles,measurement,setting,value
"Cn1cc(-c2ccc(Cc3cc(C(=O)N[C@H]4CCCC[C@@H]4O)n4ncccc34)cc2)cn1 [Example 32, N-(cis-1S,2S-2-Hydroxycyclohexyl)-5-[4-(1-methyl-1H-pyrazol-4-yl)-benzyl]-pyrrolo [1,2-b]pyridazine-7-carboxamide]",Inference,[1],Active
same,"Exploration time mean ± S.E.M, Familiar object",[1]; [3],11.64 ± 2.16 s
same,"Exploration time mean ± S.E.M, Novel object",[1]; [3],19.81 ± 2.96 s
same,"Mean area under the curve values (AUC) of θ power change, combination versus donepezil alone",[2]; i.v. + donepezil 0.3 mg/kg,significantly higher compared to donepezil alone
same,"effect on θ power, combination treatment versus donepezil alone",[2]; i.v. + donepezil 0.3 mg/kg,significantly higher than the donepezil alone
same,θ power levels,[2]; i.v. in combination with donepezil 0.3 mg/kg,significant increase
